Values of other authors as cited in US20240207252A1, “AEROSOL-FORMING SUBSTRATE AND AEROSOL-GENERATING SYSTEM” (SHENZHEN FIRST UNION TECHNOLOGY CO., LTD., priority 2021, published 2024).

Conditions: single oral administration

COC(=O)[C@@H]1[C@H]2C[C@H]3c4[nH]c5ccccc5c4CCN3C[C@@H]2CC[C@@H]1O [yohimbine, methyl 17alpha-hydroxyyohimban-16alpha-carboxylate]
Tmax: less than 1 h
t1/2: less than 1 h
